Laboratory results from patent publication US20230190778A1, “COMPOSITION COMPRISING GLUCOSE OLIGOSACCHARIDE AND PROCESS FOR MAKING THE SAME AND USE THEREOF” (CARGILL, INCORPORATED, priority 2020, published 2023).

What was measured:
[1] = tested on: chicken macrophage-like cell line HD11; experiment: Nitric oxide (NO)-production assay (Griess); format: cell-based; conditions: HD11 cells
Procedure: A nitric oxide production assay using chicken macrophage-like cell line HD11, as also described by Biggelaar et al., Vaccines 2020, 8(2), 332, was carried out to compare immune responses in terms of NO production of the glucose-oligosaccharide according to Example 1 and a prior art glucose-oligosaccharide fibre according to Example 2.
To obtain a standard NO calibration curve, the Griess assay was used as described by Biggelaar et al.
On day 1 HD11 cell were seeded, day 2 compounds were added at different concentrations i.e. at 10 ppm, 50 ppm and 100 ppm. […] Compounds were tested in triplicate per NO assay i.e. in total 3 series of NO assays were performed per compound per concentration.
(NB: Negative output implies zero NO production. Negative values arise due to the calculation based on the standard NO calibration curve. Negative output can be seen as 0 NO production.)

[2] = tested on: developing embryos (unhatched chicks); experiment: In ovo trial (hatchability / safety); format: in vivo, chicken; conditions: 1 mL injected in ovo at 17 days of incubation; at up to just 0.006 mg; FIG. 4
Procedure: The trials were thus carried out to indicate safety of the compound according to the invention in animals In this case, a comparison was made with Example 3, a commercially available conjugated linoleic acid (CLA). It is known that CLA may modulate the immune system.
480 eggs we incubated under standard conditions. They were divided unto 8 groups of 10 eggs replicated 6 times. At 17 days of incubation eggs were injected with 1 mL of the respective solution of Example 1 and Example 3 at increasing concentrations. The intention was to deliver into the amniotic fluid to be orally consumed and digested by the developing embryos according to the method described by (Uni et al., 2005, Poult Sci 84:764-770). At day of hatch, hatched chicks as well as remaining non-hatched eggs were counted and % hatchability was calculated to indicate safety of injected materials by not causing mortality.

Substance	NO production (positive control) [1]	hatchability [2]
Lipopolysaccharide [LPS]	high NO production	
conjugated linoleic acid [Example 3]		Not all of the chicks hatched
